The text below walks through data of patent publication US20100256357A1, “HETEROCYCLES USEFUL AS INHIBITORS OF CARBONIC ANHYDRASE” (Agouron Pharmaceuticals, Inc., priority 2006, published 2010).

Test [1] addresses T1, human CA-II (Homo sapiens, UniProt P00918).
T1 construct: purchased Sigma-Aldrich C6165
The test can be described thus: Carbonic Anhydrase-II (CA-II) Fluorescence Polarization Tight Binding Assay-Kd Determination. The conditions noted are these: inhibitor concentration 2.5 nM. How it is done: Assays were conducted in a final volume of 100 μL in 50 mM Tris/HCl (pH 7.6), 100 mM Na2SO4 and 0.005% Tween-20 in a 96-well black assay plate. […] The assay plate was
The Kd binding was calculated using GraphPad Prism and Morrison tight binding ligand equation.

Test [2] deals with T2, human CA-IV (Homo sapiens, UniProt P22748).
T2 construct: made in house; host or cells: Escherichia coli BL21(DE3)
T2 sequence (P22748 19-284 limits assumed): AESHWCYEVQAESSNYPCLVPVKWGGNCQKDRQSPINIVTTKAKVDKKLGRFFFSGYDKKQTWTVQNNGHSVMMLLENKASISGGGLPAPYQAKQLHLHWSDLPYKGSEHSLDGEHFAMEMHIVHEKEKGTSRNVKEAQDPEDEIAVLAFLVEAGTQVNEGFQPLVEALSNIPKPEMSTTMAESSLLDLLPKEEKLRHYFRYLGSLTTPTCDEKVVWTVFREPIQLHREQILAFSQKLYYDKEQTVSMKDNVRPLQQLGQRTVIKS
The test can be described thus: Carbonic Anhydrase-IV (CA-IV) Fluorescence Polarization Assay-IC50 Determination. In kind it is binding. The conditions noted are these: for inhibition at 0.2 µM: CA-IV Min dose 200 nM, read-out: CA-IV: % Inh @ Min dose; for pIC50: read-out: CA-IV IC50. How it is done:
Carbonic Anhydrase-IV (CA-IV) Fluorescence Polarization Assay-IC50 Determination
These cells were grown in Luria broth (LB) media (Biomyx) supplemented with 800 uM ZnCl2 at 37° C. until an O.D.600 of 0.7, at which point the cells were induced with 100 uM isopropyl-beta-D-thiogalactopyranoside (IPTG) for 20 hours at 20° C. The frozen pellet was resuspended in 50mM 2-morpholinoethanesulfonic acid (MES) at pH 6.0, 100 mM NaCl, 800 uM ZnCl2 and EDTA-Free protease inhibitors (Roche). The cells were lysed with a microfluidizer, the lysate was spun at 40,000 rpm for 45 minutes at 4° C., and the soluble fraction was dialyzed overnight at 4° C. in 50 mM MES pH 6.0, and 100 mM NaCl. The soluble fraction was then put over a 100 ml SP-Sepharose High Performance (GE Healthcare) column and eluted with a 50 mM MES pH 6.0, 750 mM NaCl gradient. The peak fractions were then concentrated, via an Amicon Ultra-4 10,000 MWCO (Millipore) spin column to 2.0 mL and loaded onto a Sephacryl S-100 High Resolution (GE Healthcare) column in 25 mM tris(hydroxymethyl)aminomethane hydrochloride (Tris-HCl) pH 7.0, and 100 mM NaCl. The peak fractions were then concentrated, via an Amicon Ultra-4 10,000 MWCO (Millipore) spin column, to 7.0 mg/mL and left exposed at room temperature overnight. […] T.; et al. Carbonic Anhydrase Inhibitors. Med. Res. Rev. […]
Assays were conducted in a final volume of 100 μL in 50 mM Tris/HCl (pH 7.6), 100 mM Na2SO4 and 0.005% Tween-20 in a 96-well black assay plate.
For orientation: Fluorescence polarisation rises when a labelled molecule tumbles more slowly, as on binding a larger partner.

Test [3] has as its target T1, human CA-II. The test can be described thus: Carbonic Anhydrase-II (CA-II) Fluorimetric Assay-IC50 Determination. Format: biochemical. The settings on record: for pIC50: Kd ND, read-out: CA-II IC50. The procedure, abridged: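 Compounds were tested as an 11-point, 1:3 dilution series in duplicate, with a top final concentration of 1 μM, in 50 mM Tris/HCl pH 7.6, 100 mM Na2SO4 and 0.005% Tween-20. Human CA-II activity was followed as the rate of fluorescein diacetate hydrolysis at 25° C, with excitation at 488 nm and emission at 538 nm.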

Where [4] appears, read: CA II Min dose 100 nM, read-out: CAII % Inh @ Min dose.

pIC50: −log10 of the molar value. Where two headings read alike, the source gives them in different places.

For `C[C@@H](NCc1nc(Cc2ccccc2)n(-c2ccc(S(N)(=O)=O)cc2F)n1)c1ccccc1` [Example T-65], in test [1], the inhibition at 0.0025 µM worked out at 58%.
`CN(CCn1cccn1)Cc1nc(Cc2ccccc2)n(-c2ccc(S(N)(=O)=O)cc2F)n1` [Example T-38, 4-[5-benzyl-3-({methyl[2-(1H-pyrazol-1-yl)ethyl]amino}methyl)-1H-124-triazol-1-yl]-3-fluorobenzenesulfonamide]: the inhibition at 0.0025 µM in test [1] amounted to 54%.
Consider `C[C@H](CNCc1nc(Cc2ccccc2)n(-c2ccc(S(N)(=O)=O)cc2F)n1)c1ccccc1` [Example T-52, 4-[5-benzyl-3-({[(2S)-2-phenylpropyl]amino}methyl)-1H-124-triazol-1-yl]-3-fluorobenzenesulfonamide], for which the inhibition at 0.0025 µM in test [1] turned out to be 39%.
In the case of `NS(=O)(=O)c1ccc(-n2nc(CN3CCC[C@@H](O)C3)nc2Cc2ccccc2)c(F)c1` [Example T-39, 4-(5-benzyl-3-{[(3R)-3-hydroxypiperidin-1-yl]methyl}-1H-124-triazol-1-yl)-3-fluorobenzenesulfonamide], in test [1], the inhibition at 0.0025 µM amounted to 65%.
On the same count and under the same terms, as for `NS(=O)(=O)c1ccc(-n2nc(CNC3CCCCCC3)nc2Cc2ccccc2)c(F)c1` [Example T-57, 4-(5-benzyl-3-[(cycloheptylamino)methyl]-1H-124-triazol-1-yl}-3-fluorobenzenesulfonamide], the figure is 68%.
Same read-out and setting: as for `Cc1cccc(CC(C)NCc2nc(Cc3ccccc3)n(-c3ccc(S(N)(=O)=O)cc3F)n2)n1` (stereo not shown) [Example T-78, 4-[5-benzyl-3-({[1-methyl-2-(6-methylpyridin-2-yl)ethyl]amino}methyl)-1H-124-triazol-1-yl]-3-fluorobenzenesulfonamide], the figure is 71%.
Same read-out and setting: under `C[C@@H]1COCCN1Cc1nc(Cc2ccccc2)n(-c2ccc(S(N)(=O)=O)cc2F)n1` [Example T-41, 4-(5-benzyl-3-{[(3R)-3-methylmorpholin-4-yl]methyl}-1H-124-triazol-1-yl)-3-fluorobenzenesulfonamide] stands 58%; under `COc1cccc(CCNCc2nc(Cc3ccccc3)n(-c3ccc(S(N)(=O)=O)cc3F)n2)c1` [Example T-73, 4-[5-benzyl-3-({[2-(3-methoxyphenyl)ethyl]amino}methyl)-1H-124-triazol-1-yl]-3-fluorobenzenesulfonamide], 50%; under `CCC(COC)NCc1nc(Cc2ccccc2)n(-c2ccc(S(N)(=O)=O)cc2F)n1` (stereo not shown) [Example T-70, 4-[5-benzyl-3-({[1-(methoxymethyl)propyl]amino}methyl)-1H-124-triazol-1-yl]-3-fluorobenzenesulfonamide], 89%.
`NS(=O)(=O)c1ccc(-n2nc(CN[C@@H]3COC[C@@H]3C3CC3)nc2Cc2ccccc2)c(F)c1` [Example T-77, 4-[5-benzyl-3-({[(3S4R)-4-cyclopropyltetrahydrofuran-3-yl]amino}methyl)-1H-124-triazol-1-yl]-3-fluorobenzenesulfonamide]: the inhibition at 0.0025 µM in test [1] was 50%.
Still for that read-out and setting: as for `CCC(NCc1nc(Cc2ccccc2)n(-c2ccc(S(N)(=O)=O)cc2F)n1)c1ccccc1` (stereo not shown) [Example T-75, 4-(5-benzyl-3-{[(1-phenylpropyl)amino]methyl}-1H-124-triazol-1-yl)-3-fluorobenzenesulfonamide], the figure is 51%.
Turning to `CCN(CCCCO)C(=O)c1nc(Cc2ccccc2)n(-c2ccc(S(N)(=O)=O)cc2)n1` [Example R-19, 1-[4-(aminosulfonyl)phenyl)-5-benzyl-N-ethyl-N-(4-hydroxybutyl)-1H-124-triazole-3-carboxamide], in test [2], the inhibition at 0.2 µM is 50.2% and the pIC50 is 6.51. For the same compound, the inhibition at 0.1 µM in test [3] (setting [4]) was determined as 99%. Also, the negative-log IC50 (pIC50) in test [3] is 8.45.
The matching figures for `NS(=O)(=O)c1ccc(-n2nc(C(=O)N3CCCCC3)nc2Cc2ccccc2)cc1` [Example R-24, 4-[5-benzyl-3-(piperidin-1-ylcarbonyl)-1H-124-triazol-1-yl]benzenesulfonamide]: 48.6%, 6.44, 99% and 8.43.
For `NS(=O)(=O)c1ccc(-n2nc(C(=O)N3CCc4ccccc4CC3)nc2Cc2ccccc2)cc1` [Example R-4, 4-[5-benzyl-3-(1245-tetrahydro-3H-3-benzoazepin-3-ylcarbonyl)-1H-124-triazol-1-yl]benzenesulfonamide] the same measures were 74.3%, 6.94, 100% and 8.47.
For the compound `CCCCCN(CCO)C(=O)c1nc(Cc2ccccc2)n(-c2ccc(S(N)(=O)=O)cc2)n1` [Example R-16, 1-[4-(aminosulfonyl)phenyl]-5-benzyl-N-(2-hydroxyethyl)-N-pentyl-1H-124-triazole-3-carboxamide], the inhibition at 0.2 µM in test [2] came out at 61.3%. For the same compound, the pIC50 in test [2] was 6.66. Further, the inhibition at 0.1 µM in test [3] (setting [4]) and in test [3] (read-out: CA-II % at 100 nM) was 100% each time.
As for `CN(C(=O)c1nc(Cc2ccccc2)n(-c2ccc(S(N)(=O)=O)cc2)n1)C1CCCCC1` [Example R-25, 1-[4-(aminosulfonyl)phenyl]-5-benzyl-N-cyclohexyl-N-methyl-1H-124-triazole-3-carboxamide], the inhibition at 0.2 µM in test [2] stood at 69.3%. The pIC50 in test [2] was 6.41; in test [3], 8.60. Further, in test [3] (setting [4]), the inhibition at 0.1 µM was determined as 101%.
`NS(=O)(=O)c1ccc(-n2nc(C(=O)NCC3(c4ccccc4)CC3)nc2Cc2ccccc2)cc1` [Example R-12, 1-[4-(aminosulfonyl)phenyl]-5-benzyl-N-[(1-phenylcyclopropyl)methyl]-1H-124-triazole-3-carboxamide]: in test [2], the inhibition at 0.2 µM was determined as 62.3% and the pIC50 was 6.69. For the same compound, in test [3] (setting [4]), the inhibition at 0.1 µM was 101%. In addition, in test [3] (read-out: CA-II % at 100 nM), the inhibition at 0.1 µM is 101%.
In the case of `CC(=O)N1CCCN(C(=O)c2nc(Cc3ccccc3)n(-c3ccc(S(N)(=O)=O)cc3)n2)CC1` [Example R-18, 4-(3-[(4-acetyl-14-diazepan-1-yl)carbonyl]-5-benzyl-1H-124-triazol-1-yl)benzenesulfonamide], the inhibition at 0.2 µM in test [2] worked out at 56.9%. Moreover, in test [2], the pIC50 was 6.56. Besides, the inhibition at 0.1 µM in test [3] (setting [4]) is 96%; in test [3] (read-out: CA-II % at 100 nM) it was 98%.
Regarding `NS(=O)(=O)c1ccc(-n2nc(C(=O)N3CC4CCC3C4)nc2Cc2ccccc2)cc1` (stereo not shown) [Example R-8, 4-[3-(2-azabicyclo[2.2.1]hept-2-ylcarbonyl)-5-benzyl-1H-124-triazol-1-yl]benzenesulfonamide], in test [2], the inhibition at 0.2 µM was 56.9% and the pIC50 was 6.71. Moreover, the inhibition at 0.1 µM in test [3] (setting [4]) came out at 99%. In test [3] (read-out: CA-II % at 100 nM), the inhibition at 0.1 µM turned out to be 99%.
For the compound `CCCN(CC1CC1)C(=O)c1nc(Cc2ccccc2)n(-c2ccc(S(N)(=O)=O)cc2)n1` [Example R-5, 1-[4-(aminosulfonyl)phenyl]-5-benzyl-N-(cyclopropylmethyl)-N-propyl-1H-124-triazole-3-carboxamide], in test [2], the inhibition at 0.2 µM worked out at 66.4% and the pIC50 is 6.78. Moreover, the inhibition at 0.1 µM in test [3] (setting [4]) was determined as 100%. For the same compound, the negative logarithm of the IC50 (pIC50) in test [3] is 8.66.
As for `CN(CC(O)c1ccccc1)C(=O)c1nc(Cc2ccccc2)n(-c2ccc(S(N)(=O)=O)cc2)n1` (stereo not shown) [Example R-9, 1-[4-(aminosulfonyl)phenyl]-5-benzyl-N-(2-hydroxy-2-phenylethyl)-N-methyl-1H-124-triazole-3-carboxamide], in test [2], the inhibition at 0.2 µM came out at 58% and the negative logarithm of the IC50 (pIC50) was 6.70. In test [3] (setting [4]), the inhibition at 0.1 µM was 99%. Further, in test [3] (read-out: CA-II % at 100 nM), the inhibition at 0.1 µM worked out at 99%.
As for `NS(=O)(=O)c1ccc(-n2nc(C(=O)N3CCOc4ccccc4C3)nc2Cc2ccccc2)cc1` [Example R-7, 4-[5-benzyl-3-(23-dihydro-14-benzoxazepin-4(5H)-ylcarbonyl)-1H-124-triazol-1-yl]benzenesulfonamide], in test [2], the inhibition at 0.2 µM came to 59.1%. Moreover, the pIC50 is 6.74 in test [2] and 8.43 in test [3]. The inhibition at 0.1 µM in test [3] (setting [4]) stood at 101%.

By pIC50 is commonly meant the IC50 on a negative log10 scale, so that one unit is a factor of ten.
